Reference: patent US10851073B2, “Protein tyrosine phosphatase inhibitors and methods of use thereof” (Calico Life Sciences LLC, priority 2019, dated 2020)

Experiments:
[1] = molecular target: T1, His tagged full-length PTPN1 protein (Homo sapiens, UniProt P18031); assay: Mobility shift assay (MSA) used to determine potency of PTPN1 inhibitors; format: biochemical; details: enzyme 0.5 nM, substrate 2 μM
T1 construct: made in house
T1 sequence (P18031 with tags, fused parts or gaps): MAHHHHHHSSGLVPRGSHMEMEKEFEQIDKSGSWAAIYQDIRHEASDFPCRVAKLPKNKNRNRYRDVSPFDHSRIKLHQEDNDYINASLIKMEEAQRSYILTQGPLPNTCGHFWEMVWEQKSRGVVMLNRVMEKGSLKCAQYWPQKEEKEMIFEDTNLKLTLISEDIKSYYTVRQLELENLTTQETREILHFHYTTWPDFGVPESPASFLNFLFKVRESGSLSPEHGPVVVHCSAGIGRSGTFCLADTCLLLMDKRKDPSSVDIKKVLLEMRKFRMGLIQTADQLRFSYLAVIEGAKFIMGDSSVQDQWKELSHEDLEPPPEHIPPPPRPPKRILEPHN
Experimental: Example 228: Mobility Shift Assay (MSA) Used to Determine Potency of PTPN1 Inhibitors
Compound activity was determined using in house His tagged full-length PTPN1 protein (SEQ ID NO: 3) in an in vitro enzymatic reaction. The enzymatic assay used to determine activity is a mobility shift assay using a LabChip EZ Reader by Caliper Life Sciences. The enzymatic reaction was carried out in assay buffer (50 mM HEPES pH 7.5, 1 mM EGTA, 10 mM EDTA, 0.01% Tween® 20, and 2 mM DTT). The compounds were dispensed on a white 384 well ProxiPlate™ (PerkinElmer Cat^# 6008289) plate using a Labcyte Echo® liquid handler at varying concentrations (12 point, 1:3 dilution). The enzyme (at 0.5 nM) was incubated with compound for 10 minutes at room temperature. Then the substrate (phosphorylated insulin receptor probe sequence: ((OG488)-(NH—CH2—CH2—O—CH2—CH2—O—CH2—CO)-T-R-D-I-(PY)-E-T-D-Y-Y-R-K-K-NH2) (SEQ ID NO: 2) was added at 2 μM to the plates and incubated for another 10 minutes at room temperature. Finally, a quench solution (water and 4-bromo-3-(2-oxo-2-propoxyethoxy)-5-(3-{[1-(phenylmethanesulfonyl)piperidin-4-yl]amino}phenyl)thiophene-2-carboxylic acid) was added to the plates, which were then run on the EZ Reader (excitation 488 nm, emission 530 nm) to measure % conversion (the amount of phosphorylated substrate which was de-phosphorylated by PTPN1). […] The % inhibition was then used to calculate the IC50 values.

[2] = molecular target: T2, His tagged PTPN2 (TC45) protein (Homo sapiens, UniProt P17706); assay: Mobility shift assay used to determine potency of PTPN2 inhibitors; format: biochemical; details: enzyme 0.5 nM, substrate 2 μM; read-out: PTPN2 MSA IC50
T2 construct: made in house
T2 sequence (P17706 with tags, fused parts or gaps isoform P17706-2): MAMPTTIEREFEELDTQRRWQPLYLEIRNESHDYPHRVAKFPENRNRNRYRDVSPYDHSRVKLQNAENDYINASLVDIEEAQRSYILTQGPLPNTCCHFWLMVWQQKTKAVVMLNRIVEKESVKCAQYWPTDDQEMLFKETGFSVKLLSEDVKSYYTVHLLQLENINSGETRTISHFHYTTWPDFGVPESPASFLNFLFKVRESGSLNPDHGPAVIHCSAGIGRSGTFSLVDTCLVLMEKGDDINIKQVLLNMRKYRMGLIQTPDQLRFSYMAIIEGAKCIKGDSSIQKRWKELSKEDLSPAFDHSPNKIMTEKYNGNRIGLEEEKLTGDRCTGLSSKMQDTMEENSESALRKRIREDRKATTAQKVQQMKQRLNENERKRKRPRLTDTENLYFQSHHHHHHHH
Experimental: Example 227: Mobility Shift Assay Used to Determine Potency of PTPN2 Inhibitors
Compound activity was determined using in house His tagged PTPN2 (TC45) protein (SEQ ID NO: 1) in an in vitro enzymatic reaction. The enzymatic assay used to determine activity was a mobility shift assay using a LabChip EZ Reader by Caliper Life Sciences. The enzymatic reaction was carried out in assay buffer (50 mM HEPES pH 7.5, 1 mM EGTA, 10 mM EDTA, 0.01% Tween® 20, and 2 mM DTT). The compounds were dispensed on a white 384 well ProxiPlate™ (PerkinElmer Catalog #6008289) plate using the Labcyte Echo at varying concentrations (12 point, 1:3 dilution). The enzyme (at 0.5 nM) was incubated with compound for 10 minutes at room temperature. Then the substrate (phosphorylated insulin receptor probe sequence: ((OG488)-(NH—CH2—CH2—O—CH2—CH2—O—CH2—CO)-T-R-D-I-(PY)-E-T-D-Y-Y-R-K-K-NH2) (SEQ ID NO: 2) was added at 2 μM to the plates and incubated for another 10 minutes at room temperature. Finally, a quench solution (water and 4-bromo-3-(2-oxo-2-propoxyethoxy)-5-(3-{[1-(phenylmethanesulfonyl)piperidin-4-yl]amino}phenyl)thiophene-2-carboxylic acid) was added to the plates, which were then run on the EZ Reader (excitation 488 nm, emission 530 nm) to measure % conversion (the amount of phosphorylated substrate which was de-phosphorylated by PTPN2). […] The % inhibition was then used to calculate the IC50 values.

SMILES | IC50 [1] | IC50 [2]
O=C1CN(c2c(O)cc3c(c2F)CC(C2CCN(CC4CC4)C2)CC3)S(=O)(=O)N1 (mixture of isomers) [Compound 140, 5-{7-[1-(cyclopropylmethyl)pyrrolidin-3-yl]-1-fluoro-3-hydroxy-5,6,7,8-tetrahydronaphthalen-2-yl}-1λ^6,2,5-thiadiazolidine-1,1,3-trione] | 10 to 100 nM | 10 to 100 nM
O=C1CN(c2c(O)cc3c(c2F)CN(C[C@H]2C[C@@H]2c2ccncc2)CC3)S(=O)(=O)N1 (racemic) [Compound 248, 5-(8-fluoro-6-hydroxy-2-{[rac-(1R,2R)-2-(pyridin-4-yl)cyclopropyl]methyl}-1,2,3,4-tetrahydroisoquinolin-7-yl)-1λ^6,2,5-thiadiazolidine-1,1,3-trione] | 10 to 100 nM | 10 to 100 nM
O=C1CN(c2c(O)cc3c(c2F)C[C@@H]([C@H]2CCNC2)CC3)S(=O)(=O)N1 (single isomer, unassigned) [Compound 138, 5-{(7RS)-1-fluoro-3-hydroxy-7-[(3SR)-pyrrolidin-3-yl]-5,6,7,8-tetrahydronaphthalen-2-yl}-1λ^6,2,5-thiadiazolidine-1,1,3-trione] | 10 to 100 nM | 10 to 100 nM
O=C1CN(c2c(O)cc3c(c2F)C[C@@H](NCCCC(F)(F)F)CC3)S(=O)(=O)N1 (single isomer, unassigned) [Compound 147] | 10 to 100 nM | 10 to 100 nM
CC(C)(CCN[C@H]1CCc2cc(O)c(N3CC(=O)NS3(=O)=O)c(F)c2C1)C(F)(F)F (single isomer, unassigned) [Compound 176] | 10 to 100 nM | 10 to 100 nM
CC(C)CCOC1CCc2cc(O)c(N3CC(=O)NS3(=O)=O)c(F)c2C1 (stereo not shown) [Compound 100, 5-[1-fluoro-3-hydroxy-7-(3-methylbutoxy)-5,6,7,8-tetrahydronaphthalen-2-yl]-1λ^6,2,5-thiadiazolidine-1,1,3-trione] | 1 to 10 nM | 10 to 100 nM
O=C1CN(c2c(O)cc3c(c2F)CC(NCCC2CC2)CC3)S(=O)(=O)N1 (stereo not shown) [Compound 101, 5-{7-[(2-cyclopropylethyl)amino]-1-fluoro-3-hydroxy-5,6,7,8-tetrahydronaphthalen-2-yl}-1λ^6,2,5-thiadiazolidine-1,1,3-trione] | 1 to 10 nM | 1 to 10 nM
O=C1CN(c2c(O)cc3c(c2F)CC(CCC2CC2)CC3)S(=O)(=O)N1 (stereo not shown) [Compound 105, 5-[7-(2-cyclopropylethyl)-1-fluoro-3-hydroxy-5,6,7,8-tetrahydronaphthalen-2-yl]-1λ^6,2,5-thiadiazolidine-1,1,3-trione] | 1 to 10 nM | 1 to 10 nM
COC1CCc2cc(O)c(N3CC(=O)NS3(=O)=O)c(F)c2C1 (stereo not shown) [Compound 110, 5-(1-fluoro-3-hydroxy-7-methoxy-5,6,7,8-tetrahydronaphthalen-2-yl)-1λ^6,2,5-thiadiazolidine-1,1,3-trione] | 10 to 100 nM | 10 to 100 nM
COC1CCc2c(F)c(O)c(N3CC(=O)NS3(=O)=O)c(F)c2C1 (stereo not shown) [Compound 114, 5-(1,4-difluoro-3-hydroxy-7-methoxy-5,6,7,8-tetrahydronaphthalen-2-yl)-1λ^6,2,5-thiadiazolidine-1,1,3-trione] | 10 to 100 nM | 10 to 100 nM
O=C1CN(c2c(O)cc3c(c2F)CC(NCCN2CCC2)CC3)S(=O)(=O)N1 (stereo not shown) [Compound 115, 5-(7-{[2-(azetidin-1-yl)ethyl]amino}-1-fluoro-3-hydroxy-5,6,7,8-tetrahydronaphthalen-2-yl)-1λ^6,2,5-thiadiazolidine-1,1,3-trione] | 10 to 100 nM | 10 to 100 nM
COCC(C)(C)CCNC1CCc2cc(O)c(N3CC(=O)NS3(=O)=O)c(F)c2C1 (stereo not shown) [Compound 121, 5-{1-fluoro-3-hydroxy-7-[(4-methoxy-3,3-dimethylbutyl)amino]-5,6,7,8-tetrahydronaphthalen-2-yl}-1λ^6,2,5-thiadiazolidine-1,1,3-trione] | 10 to 100 nM | 1 to 10 nM
CC(F)(F)CNC1CCc2cc(O)c(N3CC(=O)NS3(=O)=O)c(F)c2C1 (stereo not shown) [Compound 132, 5-{7-[(2,2-difluoropropyl)amino]-1-fluoro-3-hydroxy-5,6,7,8-tetrahydronaphthalen-2-yl}-1λ^6,2,5-thiadiazolidine-1,1,3-trione] | 10 to 100 nM | 10 to 100 nM
O=C1CN(c2c(O)cc3c(c2F)CC(NCCn2cccn2)CC3)S(=O)(=O)N1 (stereo not shown) [Compound 141, 5-(1-fluoro-3-hydroxy-7-{[2-(1H-pyrazol-1-yl)ethyl]amino}-5,6,7,8-tetrahydronaphthalen-2-yl)-1λ^6,2,5-thiadiazolidine-1,1,3-trione] | 10 to 100 nM | 1 to 10 nM
O=C1CN(c2c(O)cc3c(c2F)CC(OC(=O)Nc2ccccc2)CC3)S(=O)(=O)N1 (stereo not shown) [Compound 149, 8-fluoro-6-hydroxy-7-(1,1,4-trioxo-1λ^6,2,5-thiadiazolidin-2-yl)-1,2,3,4-tetrahydronaphthalen-2-yl Phenylcarbamate] | 10 to 100 nM | 1 to 10 nM
CC(C)CCN(Cc1ccccn1)C1CCc2cc(O)c(N3CC(=O)NS3(=O)=O)c(F)c2C1 (stereo not shown) [Compound 154, 5-(1-fluoro-3-hydroxy-7-{(3-methylbutyl)[(pyridin-2-yl)methyl]amino}-5,6,7,8-tetrahydronaphthalen-2-yl)-1λ^6,2,5-thiadiazolidine-1,1,3-trione] | 10 to 100 nM | 1 to 10 nM
CC(C)CCN(CCc1ccccn1)C1CCc2cc(O)c(N3CC(=O)NS3(=O)=O)c(F)c2C1 (stereo not shown) [Compound 167, 5-(1-fluoro-3-hydroxy-7-{(3-methylbutyl)[2-(pyridin-2-yl)ethyl]amino}-5,6,7,8-tetrahydronaphthalen-2-yl)-1λ^6,2,5-thiadiazolidine-1,1,3-trione] | 10 to 100 nM | 1 to 10 nM
CC(O)CCOC(=O)N1CCc2cc(O)c(N3CC(=O)NS3(=O)=O)c(F)c2C1 (stereo not shown) [Compound 171, 3-hydroxybutyl 8-fluoro-6-hydroxy-7-(1,1,4-trioxo-1λ^6,2,5-thiadiazolidin-2-yl)-3,4-dihydroisoquinoline-2(1H)-carboxylate] | 1 to 10 nM | 1 to 10 nM
CC(C)[C@@H]1CN(C2CCc3cc(O)c(N4CC(=O)NS4(=O)=O)c(F)c3C2)CCO1 (stereo partly drawn) [Compound 182, 5-{1-fluoro-3-hydroxy-7-[(2R)-2-(propan-2-yl)morpholin-4-yl]-5,6,7,8-tetrahydronaphthalen-2-yl}-1λ^6,2,5-thiadiazolidine-1,1,3-trione] | 10 to 100 nM | 10 to 100 nM
O=C1CN(c2c(O)cc3c(c2F)CN(CC2CCCN2)CC3)S(=O)(=O)N1 (stereo not shown) [Compound 183, 5-{8-fluoro-6-hydroxy-2-[(pyrrolidin-2-yl)methyl]-1,2,3,4-tetrahydroisoquinolin-7-yl}-1λ^6,2,5-thiadiazolidine-1,1,3-trione] | > 100 nM | > 100 nM
